Consider six molecules from ChEMBL document CHEMBL4665678, “Overview of AKR1C3: Inhibitor Achievements and Disease Insights” (J Med Chem, 2020).

Positions count from the first letter of the chain named. Where only a bound is given, the exact number is not on record here.

In data set [1] the target is T1, Aldo-keto reductase family 1 member C3 (Homo sapiens, UniProt P42330).
T1 sequence (P42330 whole entry): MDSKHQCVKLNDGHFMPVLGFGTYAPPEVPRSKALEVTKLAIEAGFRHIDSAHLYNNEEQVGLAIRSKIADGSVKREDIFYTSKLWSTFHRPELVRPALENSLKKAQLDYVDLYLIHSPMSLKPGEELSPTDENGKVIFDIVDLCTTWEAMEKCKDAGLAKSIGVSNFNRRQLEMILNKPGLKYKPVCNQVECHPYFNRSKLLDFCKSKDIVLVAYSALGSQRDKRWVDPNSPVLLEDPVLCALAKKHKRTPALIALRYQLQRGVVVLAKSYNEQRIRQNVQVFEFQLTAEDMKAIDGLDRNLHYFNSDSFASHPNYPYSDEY
In words: Inhibition of human AKR1C3 expressed in Escherichia coli preincubated for 15 mins followed by Adion addition and measured after 30 mins by HPLC analysis.

The target of data set [2] is T2, Aldo-keto reductase family 1 member C3 (Homo sapiens) (UniProt P42330).
T2 sequence (whole entry): T1 sequence (P42330 whole entry)
In words: Inhibition NH2-terminal His6-tagged recombinant human AKR1C3 expressed in Escherichia coli BL21(DE3) cells using assessed as phenanthrenequinone reduction.

In data set [3] the target is T3, Aldo-keto reductase family 1 member C2 (Homo sapiens, UniProt P52895).
T3 sequence (P52895 whole entry): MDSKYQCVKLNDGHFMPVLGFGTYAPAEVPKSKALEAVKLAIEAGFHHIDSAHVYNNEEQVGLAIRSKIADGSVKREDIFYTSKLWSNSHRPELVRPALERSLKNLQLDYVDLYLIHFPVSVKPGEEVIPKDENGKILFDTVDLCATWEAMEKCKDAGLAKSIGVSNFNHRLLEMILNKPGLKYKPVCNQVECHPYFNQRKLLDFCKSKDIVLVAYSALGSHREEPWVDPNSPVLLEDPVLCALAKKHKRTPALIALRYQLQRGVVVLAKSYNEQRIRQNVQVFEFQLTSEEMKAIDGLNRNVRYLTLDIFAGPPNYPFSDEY
Briefly: Inhibition NH2-terminal His6-tagged recombinant human AKR1C2 expressed in Escherichia coli BL21(DE3) cells using assessed as phenanthrenequinone reduction.

In data set [4] the target is T4, Aldo-keto reductase family 1 member C1 (Homo sapiens, UniProt Q04828).
T4 sequence (Q04828 whole entry): T3 sequence (P52895 whole entry) with V38T, H47R, V54L, S87C, M151V, H170R, L172Q
Briefly: Inhibition of NH2-terminal His6-tagged recombinant human AKR1C1 expressed in Escherichia coli BL21(DE3) cells using assessed as phenanthrenequinone reduction.

In data set [5] the target is T1, Aldo-keto reductase family 1 member C3. Briefly: Inhibition of AKR1C3 (unknown origin) expressed in human HCT116 cells incubated for 2 to 4 hrs by UHPLC analysis. It is filed as cell-based, HCT-116.
The target is the same in data set [6]. In words: Inhibition of human AKR1C3 expressed in Escherichia coli incubated for 30 mins in presence of NADPH regeneration system by UHPLC method based Lineweaver-Burk double-reciprocal plot analysis.
For data set [7] the target is unchanged. Briefly: Inhibition of human AKR1C3 expressed in Escherichia coli incubated for 30 mins in presence of NADPH regeneration system by UHPLC analysis.
Data set [8] has the same target. Briefly: Inhibition of AKR1C3 (unknown origin) expressed in human HCT116 cells incubated for 3 to 6 hrs by UHPLC analysis. It is filed as cell-based, HCT-116.
For data set [9] the target is unchanged. In words: Inhibition of N-terminal His-tagged human AKR1C3 (1 to 323 residues) expressed in Escherichia coli using 4-adione as substrate in presence of NADPH by fluorescence method.
Data set [10] concerns the target T5, Prostaglandin G/H synthase 2 (Homo sapiens, UniProt P35354).
T5 sequence (P35354 whole entry): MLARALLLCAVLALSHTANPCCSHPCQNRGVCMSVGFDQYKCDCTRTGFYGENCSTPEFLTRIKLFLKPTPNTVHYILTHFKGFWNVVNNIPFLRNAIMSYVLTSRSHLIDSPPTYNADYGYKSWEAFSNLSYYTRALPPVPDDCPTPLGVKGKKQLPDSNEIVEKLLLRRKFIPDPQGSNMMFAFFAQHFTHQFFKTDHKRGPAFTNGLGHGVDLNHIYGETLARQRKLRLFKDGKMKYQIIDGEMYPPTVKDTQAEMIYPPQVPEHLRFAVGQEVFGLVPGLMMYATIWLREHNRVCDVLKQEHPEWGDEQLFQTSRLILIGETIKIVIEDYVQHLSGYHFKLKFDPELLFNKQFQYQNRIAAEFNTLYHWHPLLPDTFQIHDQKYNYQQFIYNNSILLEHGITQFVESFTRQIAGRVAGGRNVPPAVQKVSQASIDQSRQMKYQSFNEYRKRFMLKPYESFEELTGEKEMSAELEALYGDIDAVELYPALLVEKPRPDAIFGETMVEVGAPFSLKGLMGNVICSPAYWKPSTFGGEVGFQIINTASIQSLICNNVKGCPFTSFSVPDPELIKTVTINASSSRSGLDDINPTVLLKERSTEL
Briefly: Inhibition of human COX-2 expressed in Sf9 insect cells using [14C] arachidonic acid as substrate preincubated for 20 mins followed by substrate addition measured after 30 sec by thin layer chromatography assay.

Data set [11] concerns the target T1, Aldo-keto reductase family 1 member C3. In words: Inhibition of AKR1C3 (unknown origin) using 4-androstene-3,17-dione as substrate.
For data set [12] the target is unchanged. Briefly: Inhibition of AKR1C3 (unknown origin) using 9,10-phenanthrenequinone as substrate.
In the next data set the target is T6, AKR1C2 (Homo sapiens, UniProt P52895).
T6 sequence (P52895 whole entry): T3 sequence (P52895 whole entry)
In words: Inhibition of AKR1C2 (unknown origin) using 9,10-phenanthrenequinone as substrate at 60 uM relative to control. To be noted: probe 9,10-phenanthrenequinone.

Data set [13] addresses T7, Prostaglandin G/H synthase 1 (Ovis aries, UniProt P05979).
T7 sequence (P05979 whole entry): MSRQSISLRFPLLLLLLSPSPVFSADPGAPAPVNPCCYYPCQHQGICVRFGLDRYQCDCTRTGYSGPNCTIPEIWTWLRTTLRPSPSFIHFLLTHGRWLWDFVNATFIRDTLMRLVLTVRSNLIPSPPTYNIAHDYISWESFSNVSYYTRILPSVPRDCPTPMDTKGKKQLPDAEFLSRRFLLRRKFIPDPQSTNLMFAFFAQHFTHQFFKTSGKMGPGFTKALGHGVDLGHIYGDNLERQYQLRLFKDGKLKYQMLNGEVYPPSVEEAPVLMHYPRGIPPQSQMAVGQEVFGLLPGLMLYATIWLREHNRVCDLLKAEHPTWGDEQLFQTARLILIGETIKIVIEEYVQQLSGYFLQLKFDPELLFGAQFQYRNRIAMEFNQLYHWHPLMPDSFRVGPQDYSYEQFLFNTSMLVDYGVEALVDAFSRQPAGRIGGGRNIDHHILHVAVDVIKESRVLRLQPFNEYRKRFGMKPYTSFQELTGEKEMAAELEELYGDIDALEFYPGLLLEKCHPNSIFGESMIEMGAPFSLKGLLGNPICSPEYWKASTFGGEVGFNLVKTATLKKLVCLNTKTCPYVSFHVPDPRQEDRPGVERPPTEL
In words: Inhibition of ovine COX-1 using [14C] arachidonic acid as substrate preincubated for 20 mins followed by substrate addition measured after 30 sec by thin layer chromatography assay.

The target of the next data set is T8, AKR1C1 (Homo sapiens, UniProt Q04828).
T8 sequence (Q04828 whole entry): T3 sequence (P52895 whole entry) with V38T, H47R, V54L, S87C, M151V, H170R, L172Q
Briefly: Inhibition of AKR1C1 (unknown origin) using 9,10-phenanthrenequinone as substrate at 60 uM relative to control. To be noted: probe 9,10-phenanthrenequinone.

In the case of `CO[C@@H]1C=C[C@@]23c4cc5c(cc4CO[C@]2(O)CN(C)[C@H]3C1)OCO5` [TAZETTINE], in data set [1], the midpoint of inhibition, the IC50, lay at 15.8 µM.
For `CC/C=C\CC1C(=O)CCC1CC(=O)OC` (stereo unspecified) [METHYL JASMONATE], the Kis in [2] was determined as 153 µM/L; in data set [3], 49 uM/L; in data set [4], 162 uM/L.
On to `Nc1cc(C(F)(F)F)c(-c2cc(N3CCOCC3)nc(N3CCOCC3)n2)cn1` [BUPARLISIB], for which the figures for the IC50 in data set [5] and in data set [7] were 7.9 µM and 9.5 µM, respectively. Also, the Ki in [6] was 14 µM.
In turn, `CCc1cnn2c(NCc3ccc[n+]([O-])c3)cc(N3CCCC[C@H]3CCO)nc12` [DINACICLIB] returned a half-maximal inhibitory concentration (IC50) in [8] of 0.23 µM. For the same molecule, the Ki in [7] (read-out: Ki(app)) worked out at 0.07 µM.
Turning to `COc1ccc2cc3[n+](cc2c1OC)CCc1cc2c(cc1-3)OCO2` [BERBERINE], the IC50 in [9] turned out to be 4.08 µM.
In the case of `COc1ccc2c(c1)c(CCNC(C)=O)cn2C(=O)c1ccc(Cl)cc1`, the IC50 in data set [10] was over 60 µM; in data set [11], 11.4 µM; in data set [12], 7.8 µM; in data set [13] it was over 60 µM. Besides, the inhibition at 60 µM against AKR1C2 and against AKR1C1 was under 10% throughout.

The IC50 is the point on the concentration scale where inhibition reaches its midpoint. As usually defined, the inhibition is the change of the read-out against control, counted positive when it falls.
